The values below are quoted from earlier work in paper PMC10532012, “A Putative Role of Vasopressin/Oxytocin-Type Neuropeptide in Osmoregulation and Feeding Inhibition of Apostichopus japonicus” (International Journal of Molecular Sciences, 2023).

For one data set, the system named is rectum. On the set-up: method as in PMID 12972329.
The subject of a further data set is Lasius neglectus. The settings on record: inotocin signaling. Here is the method:
(§1) Based on the genes/transcripts encoding VP/OT-type neuropeptide signaling identified from protostomian and deuterostomian animals, the physiological effects of VP/OT superfamily signaling were analyzed and compared. In protostomes, multiple physiological functions of VP/OT-type neuropeptides in different Phylum have been characterized.

A further data set has as its system longitudinal muscle. The note with it: 10^−7–10^−5 M; positive control. As for the experimental part:
To investigate the function of holotocin, longitudinal muscle, intestine and tentacle from A. japonicus were prepared. […] Firstly, the longitudinal muscle and intestine of A. japonicus were dissected and cut into strips approximately 20 mm in length. Then, these preparations were put into a 50 mL glass organ bath containing 2 ...

In another data set the test system is C. elegans. As for the experimental part: as §1
The test system of another data set is mammals. The source says:
The conservative functions of VP/OT-type neuropeptide in vertebrates have been extensively studied, mainly including water homeostasis, reproduction and social behavior [43, 44, 45]. However, few functional studies of VP/OT-type neuropeptide in deuterostomian invertebrates especially in echinoderms have been reported. Related physiological studies of echinoderm VP/OT-type neu ...

“Also recorded” adds a separate entry of the source. Where no end group is shown, it is not given here.

For the substance octopressin, the contraction of rectum entry in the data set with rectum is reported as “tonic contraction”.
With inotocin, the energy regulation entry in the data set on Lasius neglectus was “of vital importance in energy regulation”.
Regarding “NGIWYamide [neuropeptide used as positive control for contraction of longitudinal muscles]”, in the data set with longitudinal muscle, the “contraction of longitudinal muscle, NGIWYamide” value is reported as “reported to cause contraction of longitudinal muscle preparations; also recorded: confirmed to cause contraction of longitudinal muscles”.
“Nematocin: VP/OT-type neuropeptide in nematode C. elegans (CFLNSCPYRRY; ends and bridges not checked; cysteine pairing not given here; UniProt Q4R128 20-30, looked up)”: the associative learning entry with C. elegans is “neuro-modulatory role in associative learning”.
Turning to “CYIQNCPLG-NH2 (disulfide) [OT, neurohypophyseal hormone …-NH2]”, in the data set on mammals, the lactation result is reported as “stimulated lactation” and the uterine contraction result is “caused the uterine contraction”.
With “CYFQNCPRG-NH2 (disulfide) [VP, neurohypophyseal hormone …-NH2]”, in the data set with mammals, the antidiuretic activity result was “had antidiuretic activity” and the blood pressure entry is on record as “increased blood pressure”.
